Patent US10793601B2, “Therapeutic spalt-like transcription factor 4 (SALL4) peptide” (National University of Singapore, priority 2016, dated 2020)
Values joined by “and” are separate entries in the source; they are usually repeats but may differ in a detail not shown here. Equal values may be shown once. Ends that are not written are not given here.

Experiments:
SNU387 cells = test: Cell viability assay in SNU387 cells (no SALL4 expression); assay type: cell-based; details: cell viability after 72 hr
Method: FIGS. 6A-6B. Therapeutic window of PEN-FFW in HCC cell lines. FIG. 6A: Peptides were added to HCC cell line SNU398 with high expression of SALL4. FIG. 6B: HCC cell line SNU387 with no expression of SALL4, and cell viability was measured after 72 hr of incubation.
The efficacies of the FFW, WT and MUT peptides were compared at the cellular level and in mice. A penetratin sequence (PEN) was attached to the N-terminus of each peptide to facilitate cell penetration in vitro. […] The therapeutic window of PEN-FFW in SALL4 expressing HCC cells was accessed in SNU387 cells, a HCC line with undetectable level of SALL4, as well as SNU398. The MUT and WT SALL4 peptides were also included in this assay for comparison (FIGS. 6 A & B).

SNU398 tumor xenografts = test: SNU398 xenograft in NSG mice; assay type: in vivo, NOD/SCID/gamma mice
Method: FIGS. 7A-7E. […] FIG. 7A: 7.2×10^5 SNU398 cells were inoculated subcutaneously into the right flank of NOD/SCID/gamma mice (NSG mice). Tumors were allowed to grow for one week before peptide treatments were administered every alternate day for a total of five injections. FIG. 7B: Tumor growth was documented by plotting tumor volume against time. […] FIG. 7C: Relative size of tumors resected on day 20. FIG. 7D: tumor weight was determined (n=5). […] FIG. 7E: Total RNA was isolated from the resected tumors and expression of PTEN was measured using real-time PCR.
FIGS. 9A-9E. […] FIG. 9A: PEN-FFW treated SNU398 tumor xenografts were compared to that of Sorafenib treated xenografts. FIG. 9B: PEN-FFW treated PLC8024 tumor xenografts were compared to that of Sorafenib treated xenografts. Mice body weight was measured to access toxicity of various peptides. FIG. 9C: Body weight of mice at day 17. FIG. 9D: Differences of body weight compared to day 0 (As indicated by the arrow in far left of FIG. 7A). FIG. 9E: Body weight of mice at day 19th in the experiment shown in FIG. 9A comparing effect of Sorafenib and PEN-FFW. Data represent mean±s.d. (n=5).
All mice were treated in accordance with Responsible Care and Use of Laboratory animals. In the SNU398 in vivo studies, 6-8-week-old female C.B-17 severe combined immunodeficient (SCID) mice (NSG) were inoculated s.c. into the flank with 7.2×10^5 cells in 2:1 PBS/Matrigel (BD Biosciences). The tumours were then allowed to develop to the size of 50-70 mm3 before intraperitoneal injections of the different peptides were given at two to three-day intervals for a total of 5 injections. Mice were randomly grouped in sets of six and treated with PEN (penetratin control), PEN-MUT (mutant control), PEN-WT (wild type control) and PEN-FFW (peptide 47). Tumor volumes were measured every 5 days and tumor weight were measured at the end point. For PEN control, 22.5 mg/kg were given; for PEN-MUT, PEN-WT and PEN-FFW, 35.6 mg/kg, 37 mg/kg and 36 mg/kg were given respectively to the mice according to their body weight Tumor measurements were taken twice weekly using Vernier calipers. Tumor volume was estimated using the following formula: V=0.5×width×width×length. When tumors approached ˜50 mm3, mice were randomized into groups of 5 animals each and received peptides treatment three times weekly by i.p. injection. All statistical analysis was done using a one-way ANOVA and Student's T-test.

## RQIKIWFQNRRMKWKKRRKFAKFQWI [PEN-FFW]
SNU387 cells
  specificity SNU398 (SALL4 high) versus SNU387 (no SALL4): specificity of PEN-FFW in targeting SALL4-high HCC cells (SNU398)
SNU398 tumor xenografts; SNU398 xenograft, compared to vehicle treated groups
  anti-tumor activity benchmarked against Sorafenib: stronger anti-tumor activity than Sorafenib
SNU398 tumor xenografts; SNU398 xenograft, tumor volume against time
  effect on tumor growth: significant reduced growth rate
SNU398 tumor xenografts; mean, tumors resected on day 20, five i.p. injections
  tumor weight: 88.34 mg and 88 mg
